Reference: patent publication US6225329A, “Modulators of protein tyrosine phosphatases (PTPases)” (Novo Nordisk A/S, priority 1998, dated 2001)

Legend:
SSTR1 = SSTR1 stably expressed in CHO-K1 cells; pertussis toxin-sensitive; cited from earlier work
[1] = tested on: osteoblast-like cell line UMR106; conditions: cited from earlier work; for stimulation of cell growth relative to vanadate: compared with vanadate
PTP1B = target: T1, PTP1B (Homo sapiens, UniProt P18031); test: Inhibition of classical PTP1B (truncated, first 321 amino acids) with p-nitrophenyl phosphate substrate; assay type: biochemical; conditions: p-nitrophenyl phosphate 0.16 to 10 mM; 100 mM sodium acetate pH 5.5; 25° C., 60 minutes
T1 construct: a truncated form of PTP1B (corresponding to the first 321 amino acids); made in house; host or cells: E. coli
T1 sequence (P18031 1-321): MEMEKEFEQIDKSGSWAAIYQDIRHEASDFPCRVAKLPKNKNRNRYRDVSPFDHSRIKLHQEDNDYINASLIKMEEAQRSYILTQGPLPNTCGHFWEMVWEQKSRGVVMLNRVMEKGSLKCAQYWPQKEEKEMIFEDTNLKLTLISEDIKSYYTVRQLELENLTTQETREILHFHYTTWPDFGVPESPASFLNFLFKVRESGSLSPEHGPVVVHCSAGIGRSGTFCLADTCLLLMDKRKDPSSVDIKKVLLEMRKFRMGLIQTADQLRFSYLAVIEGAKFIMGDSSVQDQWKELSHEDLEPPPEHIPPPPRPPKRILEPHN
Method: The assay conditions are as follows. […] The buffer used was 100 mM sodium acetate pH 5.5, 50 mM sodium chloride, 0.1% (w/v) bovine serum albumin and 5 mM dithiothreitol (total volume […]). The reaction was started by addition of the enzyme and carried out in microtiter plates at 25° C. for 60 minutes. The reactions are stopped by addition of NaOH. […] Inhibition is expressed as Ki values in μM.

[2] = osteoporotics; cited from earlier work
[3] = tested on: osteoblastic acid phosphatase; conditions: mitogenic concentrations of fluoride; cited from earlier work
adipocytes = conditions: cited from earlier work
skeletal muscle = conditions: cited from earlier work
platelets = conditions: cited from earlier work
B cell = conditions: compared to T cells; cited from earlier work
osteoblast = conditions: cited from earlier work

**Q.** For somatostatin, which “stimulation of PTPase activity” value (SSTR1) is on record?
**A.** can stimulate PTPase activity

**Q.** Which “growth of UMR106 cells” value [1] does the source give for `O=S(=O)([O-])[O-].[O]=[V+2]` [vanadyl] here?
**A.** increased the growth

**Q.** What about the “stimulation of cell growth relative to vanadate” value [1] of the same compound?
**A.** stronger stimulators of cell growth than vanadate

**Q.** For `O=C(O)C(=O)Nc1cc2ccccc2cc1C(=O)O` [Example 2, 3-(Oxalyl-amino)naphthalene-2-carboxylic acid], which Ki (PTP1B) is on record?
**A.** 9.9 µM

**Q.** Which spinal bone density [2] does the source give for `F` [fluoride] here?
**A.** increase spinal bone density in osteoporotics

**Q.** And the “sensitivity of osteoblastic acid phosphatase” value [3]?
**A.** highly sensitive

**Q.** For pervanadate, which “insulin response when added to whole cells” value (adipocytes) is on record?
**A.** almost full insulin response

**Q.** What about the “insulin response when added to whole cells” value (skeletal muscle) of the same compound?
**A.** almost full insulin response

**Q.** And the “tyrosine phosphorylation, secretion and aggregation of platelets” value (platelets)?
**A.** significant increase in tyrosine phosphorylation, secretion and aggregation

**Q.** What about the “growth of UMR106 cells” value [1] of the same compound?
**A.** increased the growth

**Q.** And the “stimulation of cell growth relative to vanadate” value [1]?
**A.** stronger stimulators of cell growth than vanadate

**Q.** With `[O]=[V]([O-])([O-])[O-]` [vanadate] as the compound, how does the “cell differentiation as measured by cell alkaline phosphatase activity” value ([1]; cell alkaline phosphatase activity) read?
**A.** able to regulate the cell differentiation

**Q.** What about the “growth of UMR106 cells” value [1] of the same compound?
**A.** increased the growth

**Q.** Which “B cell selective apoptosis” value (B cell) does the source give for `Cc1occc(=O)c1[O-].Cc1occc(=O)c1[O-].[O]=[V+2]` [BMLOV] here?
**A.** apparent B cell selective apoptosis

**Q.** For `[O]=[V]([O-])([O-])[O-]` [orthovanadate], which “osteoblast proliferation and matrix formation” value (osteoblast) is on record?
**A.** appears to enhance osteoblast proliferation and matrix formation
